This note sets out measurements from patent US20120077779A1, “Inhibitors of Fibroblast Activation Protein Alpha” (Trustees of Tufts College, priority 2005, published 2012).

DPP IV, sequence (P27487 whole entry, species assumed): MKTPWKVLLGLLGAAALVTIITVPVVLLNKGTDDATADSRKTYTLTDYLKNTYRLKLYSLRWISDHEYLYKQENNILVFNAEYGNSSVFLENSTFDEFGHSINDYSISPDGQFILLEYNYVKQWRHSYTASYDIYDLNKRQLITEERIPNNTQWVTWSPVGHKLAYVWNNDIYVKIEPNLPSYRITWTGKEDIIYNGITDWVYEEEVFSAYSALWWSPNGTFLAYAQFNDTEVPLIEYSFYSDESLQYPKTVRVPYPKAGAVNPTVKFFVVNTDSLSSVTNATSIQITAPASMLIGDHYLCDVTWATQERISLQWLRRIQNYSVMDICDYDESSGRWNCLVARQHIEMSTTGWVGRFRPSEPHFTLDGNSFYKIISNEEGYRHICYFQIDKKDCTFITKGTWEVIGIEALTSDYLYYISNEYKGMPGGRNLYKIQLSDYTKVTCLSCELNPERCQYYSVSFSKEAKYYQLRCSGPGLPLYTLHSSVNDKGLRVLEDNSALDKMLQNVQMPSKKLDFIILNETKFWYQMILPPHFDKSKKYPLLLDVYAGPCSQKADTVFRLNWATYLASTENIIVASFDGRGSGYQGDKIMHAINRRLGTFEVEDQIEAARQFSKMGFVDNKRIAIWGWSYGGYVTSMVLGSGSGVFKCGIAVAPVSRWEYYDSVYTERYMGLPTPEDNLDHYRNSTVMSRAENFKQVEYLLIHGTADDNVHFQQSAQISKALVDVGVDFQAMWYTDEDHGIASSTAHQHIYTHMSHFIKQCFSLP

One assay deals with T1, FAP (Homo sapiens, UniProt Q12884).
T1 sequence (Q12884 1-760): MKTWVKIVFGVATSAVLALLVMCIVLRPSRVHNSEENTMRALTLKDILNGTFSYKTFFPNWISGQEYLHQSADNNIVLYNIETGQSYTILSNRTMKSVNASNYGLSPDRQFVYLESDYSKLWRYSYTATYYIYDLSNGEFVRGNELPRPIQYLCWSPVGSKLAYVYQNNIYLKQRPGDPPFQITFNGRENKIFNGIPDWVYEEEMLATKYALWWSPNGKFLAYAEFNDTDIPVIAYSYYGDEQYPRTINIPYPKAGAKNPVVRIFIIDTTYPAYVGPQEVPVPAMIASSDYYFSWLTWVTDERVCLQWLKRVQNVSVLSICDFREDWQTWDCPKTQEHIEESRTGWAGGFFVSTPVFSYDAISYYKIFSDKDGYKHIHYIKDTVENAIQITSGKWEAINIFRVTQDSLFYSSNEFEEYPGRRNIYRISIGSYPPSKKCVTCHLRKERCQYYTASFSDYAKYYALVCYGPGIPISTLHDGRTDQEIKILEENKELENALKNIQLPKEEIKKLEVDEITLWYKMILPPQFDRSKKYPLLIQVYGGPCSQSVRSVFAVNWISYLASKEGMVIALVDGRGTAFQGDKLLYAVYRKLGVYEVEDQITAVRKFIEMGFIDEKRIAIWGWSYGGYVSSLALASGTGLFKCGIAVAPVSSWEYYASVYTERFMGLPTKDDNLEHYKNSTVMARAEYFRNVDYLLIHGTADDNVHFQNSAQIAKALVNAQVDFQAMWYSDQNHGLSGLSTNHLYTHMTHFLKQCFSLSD
The assay is described as follows: Enzymatic activity of purified FAP, chromogenic substrate H-Ala-Pro-pNA. It counts as biochemical. To be noted: pH 7.4, 25° C., 10 min pre-incubation with enzyme. The protocol: The enzymatic activity of purified FAP was measured at 25° C. on a Molecular Devices SPECTRAmax 340PC384 microtiter plate reader by monitoring the absorbance of H-Ala-Pro-pNA (Bachem) as the chromogenic substrate at 410 nm. […] Assays and their corresponding measurements were performed in duplicate. […] Inhibitor stock solutions (1 mM) were prepared in HCl solution (pH 2.0), and stored at −20° C. Stock solutions were diluted with 20 mM TRIS-HCl, KCl (20 mM) buffer at pH 7.4 immediately preceding the experiment according to the protocol.
`N#C[C@@H]1CCCN1C(=O)CNC(=O)c1ccccc1` [Compound 30]: inhibition was half-maximal at 2.2 µM (IC50).

For `C[C@H](NC(=O)CNC(=O)c1cccc2ccccc12)B(O)O` [Compound 33], half-maximal inhibition (IC50) was put at 8.2 µM.

`CC(C)[C@H](NC(=O)c1ccccc1)C(=O)N1CCC[C@H]1B(O)O` [Compound 32] returned an IC50 of 30 µM.

`CC(C)NCC(=O)N1CCCC1B(O)O` (stereo not shown) [Compound 15] had an IC50 of 0.99 µM.

`CC[C@H](NC(=O)CNC(=O)c1cccc2ccccc12)B(O)O` [Compound 34]: the IC50 is 9 µM.

Compound `O=C(NCC(=O)N1CCSC1)c1ccccc1` [Compound 31] came in with a concentration for half-maximal inhibition (IC50) of 14 µM.

Still in this assay, the particulars now being: pH 7.4, 25° C., 10 min pre-incubation; result in words.
On to `CNCC(=O)N1CCCC1B(O)O` (stereo not shown) [Compound 12], for which the “IC50 FAP (pH 7.4)” value is on record as “no inhib”.

For `CC(=O)N[C@H](C(=O)N[C@@H](C)B(O)O)C(C)C` [Compound 35], the “IC50 FAP (pH 7.4)” value is reported as “no inhib”.

Regarding `CC[C@H](NC(=O)[C@@H](NC(C)=O)C(C)C)B(O)O` [Compound 36], the “IC50 FAP (pH 7.4)” value is on record as “no inhib”.

Another assay has as its target DPP IV (Homo sapiens, UniProt P27487). Put plainly: DPP IV inhibition (Table 1). It is filed as biochemical. Particulars: pH 8.0.
The compound `CNCC(=O)N1CCCC1B(O)O` (stereo not shown) [Compound 12] displayed an IC50 of 560 µM.

Take `CCNCC(=O)N1CCCC1B(O)O` (stereo not shown) [Compound 13]: the IC50 came out at 46 µM.

On to `CC(C)NCC(=O)N1CCCC1B(O)O` (stereo not shown) [Compound 15], for which inhibition was half-maximal at 0.9 µM (IC50).

Regarding `NCC(=O)N1CCC[C@H]1B(O)O` [Compound 6], the 50% inhibitory concentration (IC50) came to 6.9 µM.
